# Measurements as given in US20050192243A1, “Neuromuscular blocking agents and antagonists thereof” (priority 2003, published 2005).
# Assays:
# Rhesus monkeys [1] = test: Recovery of twitch response from GW 280430A neuromuscular block with or without cysteine-like antagonist; format: in vivo
# Protocol: Rhesus monkeys were anesthetized with ketamine (5 mg/Kg) and thiopental (5 mg/Kg) given intramuscularly or intravenously. Anesthesia was maintained with a mixture of halothane (1.5%), nitrous oxide (60%) and oxygen (40%). The common peroneal nerve was stimulated supramaximally with square wave pulses of 0.2 m sec duration at a rate of 0.15 Hz. Twitch contractions were recorded via the tendon of the extensor digitorum muscle.
# In all animals, the trachea was intubated and ventilation was controlled at 12-15 ml/kg, 18-24 breaths per minute. A peripheral vein and artery were cannulated for drug administration and for recording or arterial pressure, respectively.
# Rhesus monkeys were anesthetized and treated with a halofumarate neuromuscular blocking agent as described in Example 1.
# Several tests were generally run (#1, #2, #3, etc.) with time in between each test so that the animal could recover.
# Rhesus monkeys [2] = settings: GW 280430A-treated animals
# [3] = #4 (after 3 administrations of 430A), 0.05 mg/kg 430A & cysteine 5 mg/kg
# [4] = #4 (after 3 administrations of 430A), 0.05 mg/kg 430A & cysteine 10 mg/kg
# [5] = Buck 13.2, 0.2 mg/kg 430A & cysteine 10.0 mg/kg
# [6] = Count 13.1 kg, #4, 0.2 mg/kg 430A & cysteine 4 mg/kg
# [7] = Impy 12.5 kg, #2, 0.05 mg/kg 430A & cysteine 5 mg/kg
# [8] = Means of Skye, Impy & Count, 0.05 mg/kg 430A & cysteine 4 or 5 mg/kg
# [9] = Means of Skye, Impy and Buck, 430A & Cysteine 10 mg/kg
# [10] = Morgan 12.4 kg, #3, 0.1 mg/kg 430A & cysteine 20 mg/kg
# [11] = Skye 11.6 kg, 0.2 mg/kg 430A & cysteine 10.0 mg/kg
# [12] = Skye 12.1 kg, #2, 0.05 mg/kg 430A & cysteine 2 mg/kg
structure (smiles),measurement,setting,value
N[C@@H](CS)C(=O)O [cysteine],time to complete reversal of the block in neuromuscular activity after administration,"Rhesus monkeys [1]; 5 mg/kg cysteine after GW 280430A, FIG. 3",≤ 100 s
same,25-75% recovery interval,Rhesus monkeys [1]; [3],63 s
same,Recovery 5-95%,Rhesus monkeys [1]; [3],237 s
same,time to 5% twitch recovery,Rhesus monkeys [1]; [3],15 s
same,time to 25% twitch recovery,Rhesus monkeys [1]; [3],39 s
same,time to 75% twitch recovery,Rhesus monkeys [1]; [3],102 s
same,time to 95% twitch recovery,Rhesus monkeys [1]; [3],252 s
same,25-75% recovery interval,Rhesus monkeys [1]; [4],15 s
same,Recovery 5-95%,Rhesus monkeys [1]; [4],96 s
same,time to 5% twitch recovery,Rhesus monkeys [1]; [4],18 s
same,time to 25% twitch recovery,Rhesus monkeys [1]; [4],51 s
same,time to 75% twitch recovery,Rhesus monkeys [1]; [4],66 s
same,time to 95% twitch recovery,Rhesus monkeys [1]; [4],114 s
same,25-75% recovery interval,Rhesus monkeys [1]; [5],2 s
same,Recovery 5-95%,Rhesus monkeys [1]; [5],42 s
same,time to 5% twitch recovery,Rhesus monkeys [1]; [5],6 s
same,time to 25% twitch recovery,Rhesus monkeys [1]; [5],24 s
same,time to 75% twitch recovery,Rhesus monkeys [1]; [5],26 s
same,time to 95% twitch recovery,Rhesus monkeys [1]; [5],48 s
same,Recovery 5%,Rhesus monkeys [1]; [6],9 s
same,Recovery 5-95%,Rhesus monkeys [1]; [6],27 s
same,Recovery 25%,Rhesus monkeys [1]; [6],15 s
same,Recovery 25-75%,Rhesus monkeys [1]; [6],15 s
same,Recovery 75%,Rhesus monkeys [1]; [6],30 s
same,Recovery 95%,Rhesus monkeys [1]; [6],36 s
same,Recovery 5%,Rhesus monkeys [1]; [7],6 s
same,Recovery 5-95%,Rhesus monkeys [1]; [7],90 s
same,Recovery 25%,Rhesus monkeys [1]; [7],33 s
same,Recovery 25-75%,Rhesus monkeys [1]; [7],15 s
same,Recovery 75%,Rhesus monkeys [1]; [7],48 s
same,Recovery 95%,Rhesus monkeys [1]; [7],96 s
same,25-75% recovery interval,Rhesus monkeys [1]; [8],31 s
same,time to 5% twitch recovery,Rhesus monkeys [1]; [8],10 s
same,time to 25% twitch recovery,Rhesus monkeys [1]; [8],29 s
same,time to 75% twitch recovery,Rhesus monkeys [1]; [8],60 s
same,time to 95% twitch recovery,Rhesus monkeys [1]; [8],125 s
same,25-75% recovery interval,Rhesus monkeys [1]; [9],12 s
same,Recovery 5-95%,Rhesus monkeys [1]; [9],76 s
same,time to 5% twitch recovery,Rhesus monkeys [1]; [9],10 s
same,time to 25% twitch recovery,Rhesus monkeys [1]; [9],31 s
same,time to 75% twitch recovery,Rhesus monkeys [1]; [9],43 s
same,time to 95% twitch recovery,Rhesus monkeys [1]; [9],86 s
same,Recovery 5%,Rhesus monkeys [1]; [10],24 s
same,Recovery 5-95%,Rhesus monkeys [1]; [10],144 s
same,Recovery 25%,Rhesus monkeys [1]; [10],42 s
same,Recovery 25-75%,Rhesus monkeys [1]; [10],24 s
same,Recovery 75%,Rhesus monkeys [1]; [10],66 s
same,Recovery 95%,Rhesus monkeys [1]; [10],168 s
same,25-75% recovery interval,Rhesus monkeys [1]; [11],18 s
same,Recovery 5-95%,Rhesus monkeys [1]; [11],90 s
same,time to 5% twitch recovery,Rhesus monkeys [1]; [11],6 s
same,time to 25% twitch recovery,Rhesus monkeys [1]; [11],18 s
same,time to 75% twitch recovery,Rhesus monkeys [1]; [11],36 s
same,time to 95% twitch recovery,Rhesus monkeys [1]; [11],96 s
same,Recovery 5%,Rhesus monkeys [1]; [12],10 s
same,Recovery 5-95%,Rhesus monkeys [1]; [12],208 s
same,Recovery 25%,Rhesus monkeys [1]; [12],35 s
same,Recovery 25-75%,Rhesus monkeys [1]; [12],65 s
same,Recovery 75%,Rhesus monkeys [1]; [12],100 s
same,Recovery 95%,Rhesus monkeys [1]; [12],218 s
same,side effects at highest dosage tested,Rhesus monkeys [2]; cysteine 20 mg/kg,no negative side effects
same,effect on blood pressure or heart rate,"Rhesus monkeys [2]; cysteine, therapeutic range (5-10 mg/Kg), FIG. 2",no significant affect on blood pressure or heart rate
N[C@@H](CCC(=O)N[C@@H](CS)C(=O)NCC(=O)O)C(=O)O [glutathione],time to complete reversal of the block in neuromuscular activity after administration,"Rhesus monkeys [1]; 5 mg/kg antagonist after GW 280430A, FIG. 4, FIG. 5",≤ 140 s
